IC50 and Activity data for nine compounds are collected here from ChEMBL document CHEMBL5335831, “Total Synthesis of a TNBC-Selective Cytotoxic Bromo Nor-eremophilane, PC-A, and Its Preliminary Structure-Activity Relationships” (J Nat Prod, 2024).

Each structure is given as a SMILES string. Activity calls are given as the source filed them. The rule behind the calls is not given here.

For assay [1], the system named is MDA-MB-231. Description: Antiproliferative activity against human MDA-MB-231 cells assessed as cell growth inhibition incubated for 72 hrs by sulforhodamine B assay. Type of assay: functional, cell-based. The note with it: MDA-MB-231, 72 h. A general note: In SRB staining, fixed cells bind dye roughly in proportion to their protein.
The next assay has as its system MCF7. Description: Antiproliferative activity against human MCF7 cells assessed as cell growth inhibition incubated for 72 hrs by sulforhodamine B assay. Type of assay: functional, cell-based. The note with it: MCF7, 72 h.
Another assay deals with A549. Briefly: Antiproliferative activity against human A549 cells assessed as cell growth inhibition incubated for 72 hrs by sulforhodamine B assay. Type of assay: functional, cell-based. The note with it: A549, 72 h.
In a further assay the test system is KB. Briefly: Antiproliferative activity against human KB cells assessed as cell growth inhibition incubated for 72 hrs by sulforhodamine B assay. In kind it is functional, cell-based.
Assay [2] can be described thus: Antiproliferative activity against human KB-VIN cells assessed as cell growth inhibition incubated for 72 hrs by sulforhodamine B assay. The following applies: KBVIN. In kind it is functional, cell-based.
The test system of assay [3] is MDA-MB-231. Description: Induction of cell cycle arrest in human MDA-MB-231 cells assessed as accumulation of cells at G2/M phase at IC50 x 8 incubated for 24 hrs by propidium iodide staining based flow cytometry. Type of assay: functional. (In flow cytometry, cells or beads pass a laser one at a time.)
In assay [4] the test system is MDA-MB-231. Description: Induction of cell cycle arrest in human MDA-MB-231 cells assessed as accumulation of cells at G2/M phase at IC50 incubated for 24 hrs by propidium iodide staining based flow cytometry. In kind it is functional.
In assay [5] the test system is MDA-MB-231. Briefly: Induction of cell cycle arrest in human MDA-MB-231 cells assessed as accumulation of cells at sub-G1 phase at 8 x IC50 incubated for 24 hrs by propidium iodide staining based flow cytometry. Type of assay: functional.
Assay [6] relates to MDA-MB-231. Briefly: Induction of nuclear fragmentation in human MDA-MB-231 cells at 8 x IC50 incubated for 24 hrs by propidium iodide staining based flow cytometry. Type of assay: functional, cell-based.

By IC50 is commonly meant the concentration needed to halve the response being measured. `CC(=O)C1=C(O)C=C2C=C[C@H](O)[C@H](C)[C@@]2(C)C1`: the IC50 (in the assay on MDA-MB-231 [1]; in the assay on MCF7; in the assay on A549; in the assay with KB; in assay [2]) was > 40 µM in each case.
`CC(=O)C1=C(O)C=C2C(Br)=C[C@H](O)[C@H](C)[C@@]2(C)C1`: the IC50 in the assay on MDA-MB-231 [1] amounted to 5.2 µM; with MCF7 it was 13 µM; in the assay with A549, 19 µM; with KB, 15 µM; in assay [2], 18 µM. Also, the outcome with MDA-MB-231 [3] and in the assay with MDA-MB-231 [4] was Active.
Consider `C[C@H]1C(=O)C=C(Br)C2=CC(=O)CC[C@@]21C`, for which the IC50 with MDA-MB-231 [1] worked out at 6.4 µM; with MCF7, 17 µM; in the assay with A549, 25 µM; in the assay with KB, 18 µM; in [2], 19 µM. The outcome in the assay on MDA-MB-231 [4], in the assay with MDA-MB-231 [5] and in the assay on MDA-MB-231 [6] was Active.
As for `C[C@H]1[C@H](O)C=C(Br)C2=CC(=O)CC[C@@]21C`, the IC50 amounted to 32 µM with MDA-MB-231 [1]; 36 µM in the assay with MCF7; 35 µM with A549; 29 µM in the assay on KB; 37 µM in assay [2].
With `C[C@H]1[C@H](O)C=CC2=CC(=O)CC[C@@]21C`, the IC50 is > 40 µM in the assay on MDA-MB-231 [1]; > 40 µM in the assay with MCF7; > 40 µM in the assay with A549; 32 µM in the assay on KB; > 40 µM in assay [2].
Turning to `CC(=O)C1=C(O)C=C2C(Br)=CC(=O)[C@H](C)[C@@]2(C)C1`, the IC50 was found to be 5.3 µM in the assay with MDA-MB-231 [1]; 6.9 µM in the assay with MCF7; 7.9 µM with A549; 5 µM in the assay on KB; 8 µM in assay [2]. For the same compound, in the assay on MDA-MB-231 [4], the outcome was Active.
Consider `CC(=O)C1=C(O)C=C2C=CC(=O)[C@H](C)[C@@]2(C)C1`, for which the IC50 in the assay on MDA-MB-231 [1] was 31 µM; in the assay on MCF7 it was 16 µM; in the assay on A549, 29 µM; with KB it was 9.5 µM; in assay [2], 26 µM.
Regarding `C[C@H]1C(=O)C=CC2=CC(=O)CC[C@@]21C`, the IC50 (in the assay on MDA-MB-231 [1]; in the assay on MCF7; with A549; in the assay with KB; in assay [2]) was > 40 µM each time.
As for `CC(=O)O[C@H]1C(=O)[C@@]2(C)[C@H]([C@H](OC(=O)c3ccccc3)[C@]3(O)C[C@H](OC(=O)[C@H](O)[C@@H](NC(=O)c4ccccc4)c4ccccc4)C(C)=C1C3(C)C)[C@]1(OC(C)=O)CO[C@@H]1C[C@@H]2O` [PACLITAXEL], the IC50 stood at 0.011 µM with MCF7, 0.0054 µM in the assay with A549 and 2.4 µM in assay [2].
